Experimental data as given in ChEMBL document CHEMBL5365534, “Discovery of a Novel Ketohexokinase Inhibitor with Improved Drug Distribution in Target Tissue for the Treatment of Fructose Metabolic Disease” (J Med Chem, 2023).

Legend:
Cytochrome P450 3A4 = Cytochrome P450 3A4 (Homo sapiens, UniProt P08684)
Description: Inhibition of CYP3A4 in human liver microsomes at 0.1 to 30 uM measured for 5 mins in presence of NADPH by LC-MS/MS analysis

in vivo [1] = settings: Sprague-Dawley, rat, plasma, po, 10 mg/kg
Description: Drug concentration in Sprague-Dawley rat plasma at 10 mg/kg, po administered as single dose measured upto 24 hrs by LC-MS/MS analysis

[2] = Elimination half life in Beagle dog at 5 mg/kg, po administered as single dose measured upto 24 hrs by LC-MS/MS analysis; type: ADME, organism-based, Canis lupus familiaris; settings: in vivo, read-out: beta t1/2 (converted)
in vivo [3] = settings: Sprague-Dawley, rat, liver, po, 10 mg/kg
Description: Drug concentration in Sprague-Dawley rat liver at 10 mg/kg, po administered as single dose measured upto 24 hrs by LC-MS/MS analysis

[4] = Drug metabolism in mouse hepatocytes assessed as oxidation/hydrogenation/decarboxylation metabolite at 10 uM measured upto 240 mins by LC-MS/MS analysis; type: ADME, cell-based, Hepatocyte; settings: 4 h
[5] = Cmax in Sprague-Dawley rat at 10 mg/kg, po administered as single dose measured upto 24 hrs by LC-MS/MS analysis; type: ADME, organism-based; parameters: time < 24 hrs, dose 10 mg/kg, route po; settings: in vivo
[6] = Metabolic stability in mouse hepatocyte assessed as parent compound remaining at 10 uM measured after 4 hrs by LC-MS/MS analysis; type: ADME, cell-based; settings: hepatocytes, read-out: Stability
in vitro [7] = settings: human, HepG2 cells
Description: Mitotoxicity in human HepG2 cells incubated for 2 hrs by Celltiter-Glo assay

[8] = AUC (0 to infinity) in Sprague-Dawley rat at 10 mg/kg, po administered as single dose measured upto 24 hrs by LC-MS/MS analysis; type: ADME, organism-based; parameters: dose 10 mg/kg, time < 24 hrs, route po; settings: in vivo
[9] = Elimination half life in Sprague-Dawley rat at 10 mg/kg, iv administered as single dose measured upto 24 hrs by LC-MS/MS analysis; type: ADME, organism-based; settings: in vivo, read-out: beta t1/2 (converted)
HepG2 [10] = test: cells; settings: Homo sapiens, HepG2, 48 h
Description: Cytotoxicity against human HepG2 cells measured after 48 hrs by microscopy based analysis

Cytochrome P450 1A2 = molecular target: T1, Cytochrome P450 1A2 (Homo sapiens, UniProt P05177); test: Time dependent inhibition of CYP1A2 in human liver microsomes at 10 uM preincubated for 30 mins followed by substrate addition and measured after 15 mins in presence of NADPH by LC-MS/MS analysis; type: ADME, Microsome
T1 sequence (P05177 whole entry): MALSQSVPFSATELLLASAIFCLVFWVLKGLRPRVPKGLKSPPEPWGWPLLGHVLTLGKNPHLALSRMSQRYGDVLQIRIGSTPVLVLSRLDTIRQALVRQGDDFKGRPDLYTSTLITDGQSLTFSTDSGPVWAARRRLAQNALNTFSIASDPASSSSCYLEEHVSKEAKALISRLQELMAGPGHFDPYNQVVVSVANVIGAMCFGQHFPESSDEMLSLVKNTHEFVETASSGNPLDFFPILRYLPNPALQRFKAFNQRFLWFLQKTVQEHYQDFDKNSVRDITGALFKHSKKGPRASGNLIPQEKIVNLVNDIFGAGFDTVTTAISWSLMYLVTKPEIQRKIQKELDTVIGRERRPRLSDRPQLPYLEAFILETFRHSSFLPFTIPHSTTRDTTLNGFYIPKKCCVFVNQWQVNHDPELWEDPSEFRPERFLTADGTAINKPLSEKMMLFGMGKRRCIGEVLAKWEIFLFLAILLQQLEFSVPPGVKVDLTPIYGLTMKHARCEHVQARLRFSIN

in vitro [11] = settings: human, hepatocytes
in vitro [12] = settings: human, Caco-2
Description: Efflux ratio of apparent permeability across basolateral to apical membrane over apical to basolateral membrane in human Caco-2 cells

HepG2 [13] = test: cells; settings: Homo sapiens, HepG2, 3 h
Description: Antiproliferative activity against human HepG2 cells incubated for 3 hrs by LC-MS analysis

in vitro [14] = settings: rhesus monkey, hepatocytes
in vitro [15] = settings: human, Caco-2; remark: listed apart in the source
Description: Apparent permeability of the compound across apical side to basolateral side in human Caco-2 cells at 10 uM incubated for 2 hrs by LC-MS/MS analysis

Cytochrome P450 3A4, sequence (P08684 whole entry): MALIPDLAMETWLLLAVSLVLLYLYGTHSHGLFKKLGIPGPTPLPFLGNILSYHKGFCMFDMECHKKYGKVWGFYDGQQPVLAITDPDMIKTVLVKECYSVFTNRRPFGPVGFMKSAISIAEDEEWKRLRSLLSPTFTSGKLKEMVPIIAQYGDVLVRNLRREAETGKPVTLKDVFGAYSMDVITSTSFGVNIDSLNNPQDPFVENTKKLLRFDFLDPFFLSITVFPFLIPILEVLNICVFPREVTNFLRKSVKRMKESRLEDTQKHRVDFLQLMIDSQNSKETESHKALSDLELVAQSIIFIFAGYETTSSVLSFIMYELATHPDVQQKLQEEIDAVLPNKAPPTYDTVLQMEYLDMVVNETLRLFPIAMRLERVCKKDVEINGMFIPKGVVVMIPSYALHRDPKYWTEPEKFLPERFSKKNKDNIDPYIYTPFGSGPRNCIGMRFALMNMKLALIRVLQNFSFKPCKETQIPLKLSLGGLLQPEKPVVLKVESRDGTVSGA

IC50 (Cytochrome P450 3A4): > 30 µM
concentration at 24 h (in vivo [1]): 5.08 µg/mL
half-life [2]: 5.21 h
concentration at 24 h (in vivo [3]): 50100 ng/g
Drug metabolism [4]: Metabolite_Notdetected
Cmax [5]: 4.9 µg/mL
remaining at 4 h, 10 µM [6]: 96.6%
IC50 at 2 h (in vitro [7]): > 150 µM
AUC [8]: 44.4 µg·h/mL
half-life [9]: 5.82 h
IC50 (HepG2 [10]): > 150 µM
IC50 (Cytochrome P450 1A2): > 10 µM
hepatocyte CLint at 2 h, 1 µM (in vitro [11]): < 0.96 µL/min/1e6 cells
efflux ratio (in vitro [12]): 7.45
IC50 (HepG2 [13]): 0.196 µM
hepatocyte CLint at 2 h, 1 µM (in vitro [14]): < 0.96 µL/min/1e6 cells
Papp A→B at 2 h, 10 µM (in vitro [15]): 36.4 nm/s
Compound: C[C@H]1CCN1c1nc(N2CC[C@H](CCC(=O)O)C2)c2c(n1)C(F)(F)CC2
